In brackets after ≈: the same amount, converted by molar mass.
Experiments:
[1] = tested on: Pseudomonas aeruginosa; test: Antibacterial activity against Pseudomonas aeruginosa PAO1; assay type: functional; details: Pseudomonas aeruginosa, PAO1; read-out: MIC
[2] = tested on: Escherichia coli; test: Antibacterial activity against Escherichia coli ATCC 25922; assay type: functional; details: Escherichia coli, ATCC 25922; read-out: MIC
[3] = tested on: Acinetobacter baumannii; test: Antibacterial activity against Acinetobacter baumannii IID876; assay type: functional; details: Acinetobacter baumannii, IID876; read-out: MIC
[4] = tested on: Staphylococcus aureus; test: Antibacterial activity against Staphylococcus aureus Smith; assay type: functional; details: Staphylococcus aureus, Smith; read-out: MIC
[5] = tested on: Streptococcus pneumoniae; test: Antibacterial activity against Streptococcus pneumoniae IID553; assay type: functional; details: Streptococcus pneumoniae, IID553; read-out: MIC
[6] = tested on: Enterococcus faecium; test: Antibacterial activity against VanA-resistant Enterococcus faecium; assay type: functional; details: Enterococcus faecium; read-out: MIC
[7] = tested on: Staphylococcus aureus; test: Antibacterial activity against Staphylococcus aureus Smith infected in iv dosed ICR mouse assessed as increase in survival rate administered at 1 hr post infection measured on day 7; assay type: functional
[8] = tested on: Staphylococcus aureus; test: Antibacterial activity against Staphylococcus aureus Smith infected in po dosed ICR mouse assessed as increase in survival rate administered at 1 hr post infection measured on day 7; assay type: functional
[9] = tested on: Staphylococcus aureus; test: Ratio of MIC for quinolone-resistant Staphylococcus aureus MS5935 to MIC for […]; assay type: functional
[10] = target: Voltage-gated inwardly rectifying potassium channel KCNH2 (Homo sapiens, UniProt Q12809); test: Inhibition of MK499 binding to human ERG
Sequence of Voltage-gated inwardly rectifying potassium channel KCNH2 (Q12809 whole entry): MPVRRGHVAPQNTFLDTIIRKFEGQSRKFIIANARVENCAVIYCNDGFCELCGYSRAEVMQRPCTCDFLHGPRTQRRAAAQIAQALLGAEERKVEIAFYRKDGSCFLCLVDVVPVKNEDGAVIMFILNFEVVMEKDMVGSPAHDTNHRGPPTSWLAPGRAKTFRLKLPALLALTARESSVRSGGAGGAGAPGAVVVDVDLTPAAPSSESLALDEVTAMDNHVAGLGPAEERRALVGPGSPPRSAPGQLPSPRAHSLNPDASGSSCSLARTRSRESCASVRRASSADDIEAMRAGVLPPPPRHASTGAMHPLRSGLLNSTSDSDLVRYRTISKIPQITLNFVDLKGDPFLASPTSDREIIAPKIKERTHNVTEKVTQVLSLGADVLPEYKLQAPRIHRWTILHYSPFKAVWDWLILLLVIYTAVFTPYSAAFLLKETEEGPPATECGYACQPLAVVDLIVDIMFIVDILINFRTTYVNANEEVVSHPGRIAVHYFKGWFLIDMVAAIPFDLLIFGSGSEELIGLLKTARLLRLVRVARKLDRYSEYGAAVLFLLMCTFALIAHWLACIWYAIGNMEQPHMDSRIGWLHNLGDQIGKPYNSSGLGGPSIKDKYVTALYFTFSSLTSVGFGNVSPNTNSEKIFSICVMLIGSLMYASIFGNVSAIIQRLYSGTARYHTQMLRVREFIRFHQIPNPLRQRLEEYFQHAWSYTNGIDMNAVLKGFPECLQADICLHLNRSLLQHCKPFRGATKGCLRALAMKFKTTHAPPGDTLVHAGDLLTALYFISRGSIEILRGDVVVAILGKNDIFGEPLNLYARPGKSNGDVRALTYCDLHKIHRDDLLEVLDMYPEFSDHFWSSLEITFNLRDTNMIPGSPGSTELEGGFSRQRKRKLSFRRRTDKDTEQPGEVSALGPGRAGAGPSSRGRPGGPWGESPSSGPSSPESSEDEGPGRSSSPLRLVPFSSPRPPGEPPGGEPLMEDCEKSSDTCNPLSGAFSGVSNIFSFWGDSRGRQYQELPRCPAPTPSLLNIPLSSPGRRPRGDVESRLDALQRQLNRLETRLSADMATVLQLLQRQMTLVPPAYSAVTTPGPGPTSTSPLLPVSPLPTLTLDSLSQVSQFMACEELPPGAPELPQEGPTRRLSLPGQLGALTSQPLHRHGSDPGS

Structure (SMILES) | MIC [1] [µg/mL] | MIC [2] [µg/mL] | MIC [3] [µg/mL] | MIC [4] [µg/mL] | MIC [5] [µg/mL] | MIC [6] [µg/mL] | ED50 [7] [mg/kg] | ED50 [8] [mg/kg] | Ratio [9] | IC50 [10] [µM]
COc1ccc2ncc(F)c(CCC34CCC(NCc5ccc6c(n5)NC(=O)CO6)(CC3)CO4)c2n1 | 4 (≈ 8.1 µM) | 1 (≈ 2.03 µM) | 0.5 (≈ 1.01 µM) | 0.02 (≈ 0.0405 µM) | 0.13 (≈ 0.263 µM) | 0.5 (≈ 1.01 µM) | – | – | – | –
COc1ccc2ncc(F)c(CCC34CCC(NCc5nc6c(cc5Cl)OCC(=O)N6)(CC3)CO4)c2n1 | 2 (≈ 3.79 µM) | 2 (≈ 3.79 µM) | 1 (≈ 1.89 µM) | 0.02 (≈ 0.0379 µM) | 0.25 (≈ 0.473 µM) | 1 (≈ 1.89 µM) | – | – | – | –
COc1ccc2ncc(F)c(CCC34CCC(NCc5nc6c(cc5F)OCC(=O)N6)(CC3)CO4)c2n1 | 8 (≈ 15.6 µM) | 2 (≈ 3.91 µM) | 0.5 (≈ 0.977 µM) | 0.02 (≈ 0.0391 µM) | 0.13 (≈ 0.254 µM) | 1 (≈ 1.95 µM) | 2.5 | 3.9 | – | –
COc1ccc2ncc(F)c(CCC34CCC(NCc5nc6c(cc5OC)OCC(=O)N6)(CC3)CO4)c2n1 | 8 (≈ 15.3 µM) | 8 (≈ 15.3 µM) | 8 (≈ 15.3 µM) | 4 (≈ 7.64 µM) | 8 (≈ 15.3 µM) | 8 (≈ 15.3 µM) | – | – | <4 | –
COc1ccc2ncc(F)c(CCC34CCC(NCc5nc6c(cc5C)OCC(=O)N6)(CC3)CO4)c2n1 | 8 (≈ 15.8 µM) | 2 (≈ 3.94 µM) | 0.5 (≈ 0.985 µM) | 0.06 (≈ 0.118 µM) | 1 (≈ 1.97 µM) | 1 (≈ 1.97 µM) | – | – | – | –
COc1ccc2ncc(F)c(CCC34CCC(NCc5cc(C)c6c(n5)NC(=O)CO6)(CC3)CO4)c2n1 | 32 (≈ 63 µM) | 8 (≈ 15.8 µM) | 4 (≈ 7.88 µM) | 0.5 (≈ 0.985 µM) | 4 (≈ 7.88 µM) | 8 (≈ 15.8 µM) | – | – | – | –
COc1ccc2ncc(F)c(CCC34CCC(NCc5nc6c(c(C)c5C)OCC(=O)N6)(CC3)CO4)c2n1 | 16 (≈ 30.7 µM) | 2 (≈ 3.83 µM) | 4 (≈ 7.67 µM) | 1.06 (≈ 2.03 µM) | 8 (≈ 15.3 µM) | 2 (≈ 3.83 µM) | – | – | – | –
CCc1c(CNC23CCC(CCc4c(F)cnc5ccc(OC)nc45)(CC2)OC3)nc2c(c1C)OCC(=O)N2 | 32 (≈ 59.7 µM) | 32 (≈ 59.7 µM) | 32 (≈ 59.7 µM) | 2 (≈ 3.73 µM) | 32 (≈ 59.7 µM) | 32 (≈ 59.7 µM) | – | – | – | –
COc1ccc2ncc(F)c(CCC34CCC(NCc5nc6c(c(C)c5C(C)C)OCC(=O)N6)(CC3)CO4)c2n1 | 32 (≈ 58.2 µM) | 32 (≈ 58.2 µM) | 32 (≈ 58.2 µM) | 32 (≈ 58.2 µM) | 32 (≈ 58.2 µM) | 32 (≈ 58.2 µM) | – | – | – | –
C=Cc1c(CNC23CCC(CCc4c(F)cnc5ccc(OC)nc45)(CC2)OC3)nc2c(c1C)OCC(=O)N2 | 32 (≈ 60 µM) | 32 (≈ 60 µM) | 32 (≈ 60 µM) | 0.25 (≈ 0.469 µM) | 8 (≈ 15 µM) | 32 (≈ 60 µM) | – | – | – | –
COc1ccc2ncc(F)c(CCC34CCC(NCc5nc6c(c(C)c5F)OCC(=O)N6)(CC3)CO4)c2n1 | 32 (≈ 60.9 µM) | 32 (≈ 60.9 µM) | 32 (≈ 60.9 µM) | 0.5 (≈ 0.951 µM) | 4 (≈ 7.61 µM) | 32 (≈ 60.9 µM) | – | – | – | –
COc1ccc2ncc(F)c(CCC34CCC(NCc5ccc6c(n5)NC(=O)C(C)(C)O6)(CC3)CO4)c2n1 | 2 (≈ 3.83 µM) | 2 (≈ 3.83 µM) | 2 (≈ 3.83 µM) | 0.25 (≈ 0.479 µM) | 1 (≈ 1.92 µM) | 2 (≈ 3.83 µM) | – | – | <4 | 3

— ChEMBL document CHEMBL3603741, “Structure activity relationship of pyridoxazinone substituted RHS analogs of oxabicyclooctane-linked 1,5-naphthyridinyl novel bacterial topoisomerase inhibitors as broad-spectrum antibacterial agents (Part-6)” (Bioorg Med Chem Lett, 2015)
